Data on three molecules can be found in ChEMBL document CHEMBL1152560, “Substituted 2-arylbenzothiazoles as kinase inhibitors: hit-to-lead optimization” (Bioorg Med Chem, 2009).

The target in assay [1] is T1, Ephrin type-A receptor 3 (Homo sapiens) (UniProt P29320).
T1 sequence (whole entry): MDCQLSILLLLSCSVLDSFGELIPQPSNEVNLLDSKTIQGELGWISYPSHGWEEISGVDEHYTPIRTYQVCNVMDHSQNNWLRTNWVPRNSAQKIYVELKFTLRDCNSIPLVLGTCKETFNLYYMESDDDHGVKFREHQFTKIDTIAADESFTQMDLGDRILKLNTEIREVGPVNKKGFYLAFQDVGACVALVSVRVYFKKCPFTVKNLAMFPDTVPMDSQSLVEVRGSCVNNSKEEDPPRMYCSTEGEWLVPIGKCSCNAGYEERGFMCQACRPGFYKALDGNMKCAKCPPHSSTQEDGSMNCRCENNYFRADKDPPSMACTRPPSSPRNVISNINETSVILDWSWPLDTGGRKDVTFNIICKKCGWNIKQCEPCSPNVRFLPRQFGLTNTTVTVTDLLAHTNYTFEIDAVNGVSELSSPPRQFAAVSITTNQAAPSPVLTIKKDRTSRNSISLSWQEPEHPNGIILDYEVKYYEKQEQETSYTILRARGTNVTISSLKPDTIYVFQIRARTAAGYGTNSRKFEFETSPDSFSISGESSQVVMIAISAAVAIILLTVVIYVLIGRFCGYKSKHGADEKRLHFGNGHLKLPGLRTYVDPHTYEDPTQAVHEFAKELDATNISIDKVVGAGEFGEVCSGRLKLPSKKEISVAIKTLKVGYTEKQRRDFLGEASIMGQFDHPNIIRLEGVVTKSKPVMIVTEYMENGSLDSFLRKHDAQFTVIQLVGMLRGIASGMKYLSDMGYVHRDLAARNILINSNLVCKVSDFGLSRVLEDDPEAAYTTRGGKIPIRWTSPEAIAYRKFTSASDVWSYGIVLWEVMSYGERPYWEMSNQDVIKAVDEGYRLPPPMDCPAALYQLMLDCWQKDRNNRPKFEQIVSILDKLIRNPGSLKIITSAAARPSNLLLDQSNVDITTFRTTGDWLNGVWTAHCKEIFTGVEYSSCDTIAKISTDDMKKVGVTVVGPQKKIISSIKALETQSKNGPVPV
Briefly: Residual activity of EPHA3 at 1 uM by microplate scintillation counting.

Assay [2] concerns the target Tyrosine-protein kinase FRK (Homo sapiens) (UniProt P42685). The experiment in a line: Residual activity of FRK at 0.1 uM by microplate scintillation counting.
For assay [3], the target named is T2, Serine/threonine-protein kinase D3 (Homo sapiens) (UniProt O94806).
T2 sequence (whole entry): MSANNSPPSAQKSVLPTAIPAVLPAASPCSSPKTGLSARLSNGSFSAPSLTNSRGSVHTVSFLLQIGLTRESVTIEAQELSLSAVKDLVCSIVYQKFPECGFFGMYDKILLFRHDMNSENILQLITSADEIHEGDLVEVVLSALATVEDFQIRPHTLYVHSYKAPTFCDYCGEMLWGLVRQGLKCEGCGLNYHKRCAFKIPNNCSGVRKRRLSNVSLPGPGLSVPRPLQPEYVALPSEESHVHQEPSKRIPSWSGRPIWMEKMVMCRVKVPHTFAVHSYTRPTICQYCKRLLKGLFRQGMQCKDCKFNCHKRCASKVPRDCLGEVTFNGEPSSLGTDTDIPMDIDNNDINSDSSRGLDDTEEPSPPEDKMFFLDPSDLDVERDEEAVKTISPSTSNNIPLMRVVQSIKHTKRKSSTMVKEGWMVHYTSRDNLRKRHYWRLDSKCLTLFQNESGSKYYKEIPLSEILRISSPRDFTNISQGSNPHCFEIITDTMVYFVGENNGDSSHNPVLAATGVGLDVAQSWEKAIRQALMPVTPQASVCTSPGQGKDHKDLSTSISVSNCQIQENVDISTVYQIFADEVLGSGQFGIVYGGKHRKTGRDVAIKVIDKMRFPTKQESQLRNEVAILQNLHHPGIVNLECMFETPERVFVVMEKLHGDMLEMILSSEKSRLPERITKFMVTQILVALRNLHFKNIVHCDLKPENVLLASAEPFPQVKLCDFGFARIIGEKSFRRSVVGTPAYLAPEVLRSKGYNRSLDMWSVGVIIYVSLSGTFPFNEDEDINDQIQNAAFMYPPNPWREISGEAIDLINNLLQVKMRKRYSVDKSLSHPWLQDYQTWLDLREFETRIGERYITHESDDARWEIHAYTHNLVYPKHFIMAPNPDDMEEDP
Briefly: Residual activity of PKCnu at 0.1 uM by microplate scintillation counting.

Assay [4] addresses Mitogen-activated protein kinase kinase kinase 14 (Homo sapiens) (UniProt Q99558). The experiment in a line: Residual activity of NIK at 10 uM by microplate scintillation counting.
In assay [5] the target is Tyrosine-protein kinase CSK (Homo sapiens) (UniProt P41240). Briefly: Residual activity of CSK at 0.1 uM by microplate scintillation counting.
Chain of Tyrosine-protein kinase CSK (Homo sapiens) (P41240 2-450 limits assumed): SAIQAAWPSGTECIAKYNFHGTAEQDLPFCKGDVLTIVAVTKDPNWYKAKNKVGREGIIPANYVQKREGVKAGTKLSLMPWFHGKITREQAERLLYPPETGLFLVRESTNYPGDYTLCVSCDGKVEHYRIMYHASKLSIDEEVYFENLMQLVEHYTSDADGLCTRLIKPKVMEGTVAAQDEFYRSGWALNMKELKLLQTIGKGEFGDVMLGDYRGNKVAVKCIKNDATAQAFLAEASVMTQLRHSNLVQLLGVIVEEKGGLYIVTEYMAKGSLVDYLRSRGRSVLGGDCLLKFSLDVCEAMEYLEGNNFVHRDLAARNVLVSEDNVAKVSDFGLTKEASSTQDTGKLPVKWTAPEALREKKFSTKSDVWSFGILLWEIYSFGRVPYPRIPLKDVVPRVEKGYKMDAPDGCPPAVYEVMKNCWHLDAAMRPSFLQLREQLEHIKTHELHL
In assay [6] the target is T3, cGMP-dependent protein kinase 1 (Homo sapiens) (UniProt Q13976).
T3 sequence (whole entry): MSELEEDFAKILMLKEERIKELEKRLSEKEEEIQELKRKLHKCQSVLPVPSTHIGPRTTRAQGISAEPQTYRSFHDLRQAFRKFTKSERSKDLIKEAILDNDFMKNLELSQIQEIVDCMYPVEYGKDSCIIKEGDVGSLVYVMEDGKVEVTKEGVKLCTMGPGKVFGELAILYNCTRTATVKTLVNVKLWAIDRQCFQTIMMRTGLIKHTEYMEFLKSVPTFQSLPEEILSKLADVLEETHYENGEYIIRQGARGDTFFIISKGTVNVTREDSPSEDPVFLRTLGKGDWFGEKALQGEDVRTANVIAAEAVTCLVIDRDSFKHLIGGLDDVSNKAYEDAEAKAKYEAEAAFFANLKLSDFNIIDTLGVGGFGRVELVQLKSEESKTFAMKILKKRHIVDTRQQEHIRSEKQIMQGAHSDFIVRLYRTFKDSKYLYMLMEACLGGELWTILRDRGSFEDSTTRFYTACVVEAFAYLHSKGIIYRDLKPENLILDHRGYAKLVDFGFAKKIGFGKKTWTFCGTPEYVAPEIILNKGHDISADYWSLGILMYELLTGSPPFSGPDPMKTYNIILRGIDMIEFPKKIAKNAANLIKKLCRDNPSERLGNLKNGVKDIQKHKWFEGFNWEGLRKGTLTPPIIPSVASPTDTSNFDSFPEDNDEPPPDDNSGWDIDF
Briefly: Residual activity of PRKG1 at 0.1 uM by microplate scintillation counting.

For assay [7], the target named is Rho-associated protein kinase 2 (Homo sapiens) (UniProt O75116). Briefly: Residual activity of ROCK2 at 0.1 uM by microplate scintillation counting.
Chain of Rho-associated protein kinase 2 (Homo sapiens) (O75116 whole entry, looked up): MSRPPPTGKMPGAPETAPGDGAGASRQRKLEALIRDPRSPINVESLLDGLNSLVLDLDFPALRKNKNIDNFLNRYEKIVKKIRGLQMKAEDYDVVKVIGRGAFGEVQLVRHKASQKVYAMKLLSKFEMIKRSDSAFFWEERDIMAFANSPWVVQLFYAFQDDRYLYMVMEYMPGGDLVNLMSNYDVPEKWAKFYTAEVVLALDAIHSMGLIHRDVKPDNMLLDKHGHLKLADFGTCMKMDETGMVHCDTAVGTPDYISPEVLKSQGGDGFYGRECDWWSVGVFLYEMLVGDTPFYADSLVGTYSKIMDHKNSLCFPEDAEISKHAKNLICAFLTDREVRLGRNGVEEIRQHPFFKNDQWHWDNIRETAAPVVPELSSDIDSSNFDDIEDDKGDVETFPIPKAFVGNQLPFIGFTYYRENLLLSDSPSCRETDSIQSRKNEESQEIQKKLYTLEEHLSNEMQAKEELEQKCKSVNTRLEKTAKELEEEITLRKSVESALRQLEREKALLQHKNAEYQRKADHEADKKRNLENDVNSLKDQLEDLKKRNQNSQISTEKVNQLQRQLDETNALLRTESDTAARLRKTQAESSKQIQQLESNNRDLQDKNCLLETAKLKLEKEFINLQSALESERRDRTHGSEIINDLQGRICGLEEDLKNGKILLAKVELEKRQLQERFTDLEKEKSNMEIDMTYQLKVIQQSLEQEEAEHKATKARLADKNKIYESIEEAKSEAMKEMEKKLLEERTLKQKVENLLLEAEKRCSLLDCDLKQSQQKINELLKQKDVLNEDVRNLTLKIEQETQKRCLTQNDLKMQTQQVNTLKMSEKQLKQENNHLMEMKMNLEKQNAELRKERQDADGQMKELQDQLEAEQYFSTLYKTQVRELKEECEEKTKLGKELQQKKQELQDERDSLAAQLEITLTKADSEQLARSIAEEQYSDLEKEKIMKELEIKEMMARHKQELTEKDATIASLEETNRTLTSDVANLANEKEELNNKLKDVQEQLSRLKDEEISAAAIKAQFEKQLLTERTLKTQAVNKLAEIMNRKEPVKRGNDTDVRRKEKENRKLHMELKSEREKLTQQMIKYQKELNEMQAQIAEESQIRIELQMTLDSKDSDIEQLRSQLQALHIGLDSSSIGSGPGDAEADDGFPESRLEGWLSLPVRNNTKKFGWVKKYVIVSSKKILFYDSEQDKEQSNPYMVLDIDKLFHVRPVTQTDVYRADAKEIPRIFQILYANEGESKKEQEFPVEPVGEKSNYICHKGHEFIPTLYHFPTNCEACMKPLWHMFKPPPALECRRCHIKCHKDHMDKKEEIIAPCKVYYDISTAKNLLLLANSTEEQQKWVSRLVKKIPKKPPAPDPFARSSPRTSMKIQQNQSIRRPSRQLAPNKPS

Chain of Mitogen-activated protein kinase kinase kinase 14 (Homo sapiens) (Q99558 whole entry, looked up): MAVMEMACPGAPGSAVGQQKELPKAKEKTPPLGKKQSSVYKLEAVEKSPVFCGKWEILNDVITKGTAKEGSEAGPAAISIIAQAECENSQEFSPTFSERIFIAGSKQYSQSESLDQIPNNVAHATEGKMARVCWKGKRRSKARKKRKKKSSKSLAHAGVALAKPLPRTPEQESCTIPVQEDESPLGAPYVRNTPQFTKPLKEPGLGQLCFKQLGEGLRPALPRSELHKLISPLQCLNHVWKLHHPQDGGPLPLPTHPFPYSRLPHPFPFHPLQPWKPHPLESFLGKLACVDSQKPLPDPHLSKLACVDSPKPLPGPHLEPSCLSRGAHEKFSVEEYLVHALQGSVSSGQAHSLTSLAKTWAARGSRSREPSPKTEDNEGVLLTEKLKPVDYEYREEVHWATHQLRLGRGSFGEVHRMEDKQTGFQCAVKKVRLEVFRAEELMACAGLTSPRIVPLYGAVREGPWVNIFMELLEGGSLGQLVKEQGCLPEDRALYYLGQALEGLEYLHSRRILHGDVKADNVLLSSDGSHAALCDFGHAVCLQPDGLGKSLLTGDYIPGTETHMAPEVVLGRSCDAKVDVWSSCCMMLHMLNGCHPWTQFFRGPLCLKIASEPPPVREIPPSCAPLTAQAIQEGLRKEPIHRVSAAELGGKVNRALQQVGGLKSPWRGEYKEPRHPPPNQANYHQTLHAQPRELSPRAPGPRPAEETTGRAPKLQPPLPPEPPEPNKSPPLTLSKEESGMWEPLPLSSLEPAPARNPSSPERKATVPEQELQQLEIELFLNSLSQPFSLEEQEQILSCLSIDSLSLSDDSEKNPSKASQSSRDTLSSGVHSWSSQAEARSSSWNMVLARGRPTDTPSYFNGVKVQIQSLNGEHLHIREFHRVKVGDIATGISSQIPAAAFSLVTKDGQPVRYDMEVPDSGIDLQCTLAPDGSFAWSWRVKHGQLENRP
Chain of Tyrosine-protein kinase FRK (Homo sapiens) (P42685 whole entry): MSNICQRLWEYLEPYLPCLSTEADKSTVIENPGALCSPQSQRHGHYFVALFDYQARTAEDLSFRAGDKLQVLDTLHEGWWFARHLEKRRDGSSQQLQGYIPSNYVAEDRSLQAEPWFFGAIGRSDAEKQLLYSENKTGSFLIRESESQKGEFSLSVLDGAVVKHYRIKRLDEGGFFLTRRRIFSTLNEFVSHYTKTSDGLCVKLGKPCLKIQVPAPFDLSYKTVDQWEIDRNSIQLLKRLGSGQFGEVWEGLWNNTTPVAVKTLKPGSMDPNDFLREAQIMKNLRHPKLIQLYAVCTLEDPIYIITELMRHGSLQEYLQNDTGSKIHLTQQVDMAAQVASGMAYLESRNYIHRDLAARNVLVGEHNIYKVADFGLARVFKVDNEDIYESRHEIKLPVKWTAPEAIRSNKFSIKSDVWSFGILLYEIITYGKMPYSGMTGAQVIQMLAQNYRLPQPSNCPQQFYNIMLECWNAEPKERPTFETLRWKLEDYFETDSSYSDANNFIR

In the case of `COc1cc2c(Oc3ccc(-c4nc5ccccc5s4)cc3)ncnc2cc1OCCCN1CCN(C)CC1`, the residual activity stood at 96% in assay [1]; 100% in assay [2]; 86% in assay [3]; 94% in assay [4]; 120% in assay [5]; 97% in assay [6]. In assay [7], the residual activity amounted to 98%.

Turning to `COc1cc2c(Oc3ccc(-c4nc5ccccc5s4)cc3)ncnc2cc1OCCCN1CCCC1`, the residual activity was found to be 90% in assay [1]; 100% in assay [2]; 93% in assay [3]; 125% in assay [4]; 111% in assay [5]; 90% in assay [6]. In addition, in assay [7], the residual activity worked out at 119%.

In the case of `COc1cc2c(Oc3ccc(-c4nc5ccccc5s4)cc3F)ncnc2cc1OCCCN1CCN(C)CC1`, the residual activity in assay [1] worked out at 96%; in assay [2] it was 99%; in assay [3] it was 102%; in assay [4], 107%; in assay [5], 104%; in assay [6], 84%. Besides, the residual activity in assay [7] is 82%.
